Measured values as given in article PMC4403045 (EMBO Molecular Medicine, 2015).
Like-named read-outs stand apart in the source and are kept apart here.

Columns and labels:
MEFs = experiment: GI50 in MEFs; type: cell-based
Procedure: (§1) Cells were seeded in 96-well plates, treated with different concentrations of drugs for 48 h, and cell viability was analyzed by MTT assays according to manufacturer's protocols. Experiments to determine GI50 with the NCI60 panel cell lines (http://dtp.nci.nih.gov/branches/btb/ivclsp.html) were performed at NCI (Alley et al, [1988]; Shoemaker, [2006]).

[1] = viability of healthy primary B cells; type: cell-based; conditions: human, healthy primary CD19+ B cells from blood donors, 20 μM CY
Source text: This study was approved by the ethics committee of the University of Cologne (approval 01-163). Blood samples were obtained from patients fulfilling diagnostic criteria for CLL with informed consent according to the Helsinki protocol. Only patients without prior therapy or at least 12 months without prior chemotherapy were included in this study. Fresh blood samples were enriched by applying B-RosetteSep (StemCell Technologies, Vancouver, Canada) to aggregate unwanted cells with erythrocytes and Ficoll-Hypaque (Seromed, Berlin, Germany) density gradient purification resulting in purity > 98% of CD19^+/CD5^+ CLL cells. CLL cells were characterized for CD19, CD5, CD23, FMC7, CD38, ZAP-70, slgM, slgG, CD79a, and CD79b expression on a FACSCanto flow cytometer (BD PharMingen, Heidelberg, Germany). Controls were isolated from healthy blood donors using anti-CD19 MACS beads (Miltenyi, Bergisch Gladbach, Germany) resulting in at least 95% CD19^+ B cells.
Apoptosis was determined by flow cytometry using Annexin V-FITC/7AAD staining (BD PharMingen) after 72 h. […] The fraction of viable cells was determined by counting annexin V/7-AAD double-negative cells for each individual dosage. Median values were subsequently applied for regression analysis and calculation of the half-maximal dosage effect (IC50). […] IC50 values were determined by fitting data to the Hill equation y = y0 + (axb)/(cb+xb).

[2] = test system: CBP, TIP60, MORF, and MSL1 expression in H1650 cells; type: cell-based
[3] = test system: HDAC activities in H1650 cells; experiment: histone acetylation markers by Western blot in H1650 cells; type: cell-based; conditions: 12 h, 20 μM CY, 20 μM CpdA, 200 μM CpdB, 200 μM Bend
[4] = maximally tolerated dose in mice; conditions: female, C57BL/6, mouse, in vivo
Procedure: (§2) Experimental procedures were approved by the Animal Care and Use Committee of Shanghai Institute of Biochemistry and Cell Biology, Chinese Academy of Sciences. In all, 200 wild-type C57BL/6 mice (6 weeks old, female) were used for determining maximally tolerated dose of CY, and testing CY and other drugs' efficacy in the BCR-ABL ALL model. BCR-ABL cells have been previously described (Williams et al, [2006]). For in vivo experiments, 1 million cells were injected into mice via tail vein (Williams et al, [2006]). At 7 days postinjection, mice were treated with indicated drugs at their MTDs. Mice were monitored daily for survival after drug treatment. Survival curve and statistical analysis were done using the Prism software. For xenograft H460 model, in all, nude mice (8 weeks old, female) were used to test CY and bendamustine's in vivo efficacy. The numbers of mice used in each experimental group are labeled on Fig4.

human CLL cells = type: cell-based
HDAC1 = HDAC1 (Homo sapiens, UniProt Q13547); experiment: in vitro HDAC1 inhibition assay; type: biochemical
Chain of HDAC1 (Q13547 whole entry): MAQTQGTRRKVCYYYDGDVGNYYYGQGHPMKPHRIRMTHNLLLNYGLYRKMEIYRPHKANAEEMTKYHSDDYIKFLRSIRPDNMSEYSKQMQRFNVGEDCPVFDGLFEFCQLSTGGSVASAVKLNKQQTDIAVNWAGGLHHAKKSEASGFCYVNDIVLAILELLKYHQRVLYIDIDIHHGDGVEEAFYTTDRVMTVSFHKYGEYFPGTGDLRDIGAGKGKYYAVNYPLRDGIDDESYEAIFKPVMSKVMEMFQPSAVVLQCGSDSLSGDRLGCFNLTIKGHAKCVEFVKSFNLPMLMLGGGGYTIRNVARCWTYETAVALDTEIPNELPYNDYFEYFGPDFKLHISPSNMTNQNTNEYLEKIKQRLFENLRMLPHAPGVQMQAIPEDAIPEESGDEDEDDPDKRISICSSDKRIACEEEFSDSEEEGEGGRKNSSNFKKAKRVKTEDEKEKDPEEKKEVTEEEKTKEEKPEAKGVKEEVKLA

HDAC2 = HDAC2 (Homo sapiens, UniProt Q92769); experiment: in vitro HDAC inhibition assay, HDAC2; type: biochemical
Chain of HDAC2 (Q92769 whole entry): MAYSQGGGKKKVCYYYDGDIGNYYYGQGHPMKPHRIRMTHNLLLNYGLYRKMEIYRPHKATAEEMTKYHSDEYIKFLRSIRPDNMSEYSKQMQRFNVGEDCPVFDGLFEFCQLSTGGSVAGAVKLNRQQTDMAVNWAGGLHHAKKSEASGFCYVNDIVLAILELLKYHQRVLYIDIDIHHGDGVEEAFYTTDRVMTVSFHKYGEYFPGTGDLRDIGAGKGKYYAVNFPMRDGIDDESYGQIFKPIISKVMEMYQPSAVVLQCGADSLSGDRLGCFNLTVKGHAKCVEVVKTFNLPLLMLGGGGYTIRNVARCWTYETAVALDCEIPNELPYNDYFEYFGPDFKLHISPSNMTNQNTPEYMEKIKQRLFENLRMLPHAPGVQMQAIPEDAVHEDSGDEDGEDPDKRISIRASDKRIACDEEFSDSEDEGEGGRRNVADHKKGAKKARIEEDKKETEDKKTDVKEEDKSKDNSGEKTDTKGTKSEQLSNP

HDAC4 = HDAC4 (Homo sapiens, UniProt P56524); experiment: in vitro HDAC inhibition assay, HDAC4; type: biochemical
Chain of HDAC4 (P56524 whole entry): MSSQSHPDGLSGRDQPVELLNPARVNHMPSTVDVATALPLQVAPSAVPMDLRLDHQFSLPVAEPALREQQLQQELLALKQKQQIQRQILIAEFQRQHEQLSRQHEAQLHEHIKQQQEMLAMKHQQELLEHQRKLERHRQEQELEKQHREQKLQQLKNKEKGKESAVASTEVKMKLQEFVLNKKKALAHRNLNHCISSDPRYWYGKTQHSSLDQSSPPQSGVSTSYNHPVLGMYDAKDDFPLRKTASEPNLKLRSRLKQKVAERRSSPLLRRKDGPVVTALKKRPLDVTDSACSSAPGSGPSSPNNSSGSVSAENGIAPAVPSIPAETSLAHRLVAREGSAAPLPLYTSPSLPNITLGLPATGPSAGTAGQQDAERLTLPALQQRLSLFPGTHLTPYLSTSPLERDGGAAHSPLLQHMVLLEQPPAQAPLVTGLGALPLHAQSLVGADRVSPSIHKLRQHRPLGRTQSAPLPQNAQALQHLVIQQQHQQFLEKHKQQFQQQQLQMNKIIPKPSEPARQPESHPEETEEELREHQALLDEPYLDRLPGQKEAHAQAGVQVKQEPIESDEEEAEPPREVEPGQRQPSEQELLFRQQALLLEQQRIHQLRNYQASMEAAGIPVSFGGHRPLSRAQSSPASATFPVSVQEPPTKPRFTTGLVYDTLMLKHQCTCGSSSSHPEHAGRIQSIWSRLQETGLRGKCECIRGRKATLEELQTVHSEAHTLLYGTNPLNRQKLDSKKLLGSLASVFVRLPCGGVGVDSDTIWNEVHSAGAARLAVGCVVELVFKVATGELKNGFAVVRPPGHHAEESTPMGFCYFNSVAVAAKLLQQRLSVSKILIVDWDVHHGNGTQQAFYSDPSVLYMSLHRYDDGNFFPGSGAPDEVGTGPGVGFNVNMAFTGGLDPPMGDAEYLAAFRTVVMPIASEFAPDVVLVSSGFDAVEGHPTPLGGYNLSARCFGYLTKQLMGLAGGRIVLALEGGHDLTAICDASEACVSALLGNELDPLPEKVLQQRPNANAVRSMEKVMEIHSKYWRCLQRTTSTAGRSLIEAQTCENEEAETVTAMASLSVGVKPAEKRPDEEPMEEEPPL

human AML cells = experiment: patient derived xenograft mouse model of human AML; conditions: done by other collaborators; review file
BCR-ABL ALL cells = experiment: survival of mice transplanted with BCR-ABL ALL cells; type: in vivo; conditions: for survival extension: treatment at MTD, mice transplanted with BCR-ABL ALL cells
Procedure: as §2, with “BCR-ABL cells have been previously described (Williams et al, [2006]). For in vivo experiments, 1 million cells were injected into mice via tail vein (Williams et al, [2006]).” left out

[5] = test system: human NSCLC cell line H460; experiment: H460 xenograft in nude mice; type: in vivo; conditions: single dose CY 20, 40, 60 mg/kg; bendamustine 40 mg/kg
Procedure: as §2

HDAC6 = biological target: T1, HDAC6 (Homo sapiens, UniProt Q9UBN7); experiment: in vitro HDAC inhibition assay, HDAC6; type: biochemical
T1 sequence (Q9UBN7 1-1215): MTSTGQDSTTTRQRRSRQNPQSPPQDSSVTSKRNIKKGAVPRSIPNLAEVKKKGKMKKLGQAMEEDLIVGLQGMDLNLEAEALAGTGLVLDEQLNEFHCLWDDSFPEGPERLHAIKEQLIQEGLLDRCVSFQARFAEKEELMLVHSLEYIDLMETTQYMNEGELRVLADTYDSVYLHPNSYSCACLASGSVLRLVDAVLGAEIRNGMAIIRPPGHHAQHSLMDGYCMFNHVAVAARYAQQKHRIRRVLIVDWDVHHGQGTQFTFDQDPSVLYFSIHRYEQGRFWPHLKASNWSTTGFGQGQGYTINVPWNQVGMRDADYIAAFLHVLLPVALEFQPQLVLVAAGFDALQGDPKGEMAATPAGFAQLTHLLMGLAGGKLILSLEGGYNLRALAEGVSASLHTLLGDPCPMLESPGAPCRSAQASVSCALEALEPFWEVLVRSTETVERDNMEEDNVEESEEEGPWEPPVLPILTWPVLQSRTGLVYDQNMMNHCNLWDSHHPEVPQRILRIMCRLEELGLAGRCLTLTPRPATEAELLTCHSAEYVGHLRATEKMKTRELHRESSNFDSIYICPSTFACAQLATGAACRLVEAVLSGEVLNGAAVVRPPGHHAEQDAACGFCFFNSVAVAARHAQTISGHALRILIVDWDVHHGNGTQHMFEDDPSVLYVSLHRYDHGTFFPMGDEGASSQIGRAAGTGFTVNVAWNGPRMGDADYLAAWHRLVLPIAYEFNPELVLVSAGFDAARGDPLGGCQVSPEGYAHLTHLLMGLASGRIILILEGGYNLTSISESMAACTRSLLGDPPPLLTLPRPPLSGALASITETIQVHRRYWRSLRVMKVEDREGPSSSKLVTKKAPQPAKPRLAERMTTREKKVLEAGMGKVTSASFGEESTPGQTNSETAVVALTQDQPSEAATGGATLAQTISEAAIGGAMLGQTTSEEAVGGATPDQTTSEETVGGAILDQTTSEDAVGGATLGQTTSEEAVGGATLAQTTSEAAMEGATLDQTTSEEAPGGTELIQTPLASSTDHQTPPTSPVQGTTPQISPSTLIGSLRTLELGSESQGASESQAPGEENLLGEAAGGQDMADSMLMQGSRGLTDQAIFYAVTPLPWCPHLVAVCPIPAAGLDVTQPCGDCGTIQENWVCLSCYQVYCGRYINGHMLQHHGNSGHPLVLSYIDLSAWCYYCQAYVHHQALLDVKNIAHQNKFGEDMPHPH

[6] = test system: BCR-ABL Arf−/− murine ALL cells; experiment: activity against BCR-ABL ALL cells in vitro; type: cell-based
Procedure: Cell lines were cultured using standard protocols provided by ATCC. Myc Arf^−/− cells were cultured as described (Jiang et al, [2009]). BCR-ABL mouse ALL cells were a kind gift from Dr. Richard Williams. CY190602 and its derivatives compound A and B were synthesized by Dr. Wang's Laboratory (U. New Mexico). Other chemicals were purchased from Selleck, EMD, or VWR. Antibodies against γ-H2AX (Millipore), actin (Sigma), H3K18Ac, H3K9Ac, and H3K56Ac (Cell Signaling) were used for Western blotting.
as §1

NCI60 cell lines = experiment: GI50 in the NCI60 cell line panel; type: cell-based; conditions: Homo sapiens
Procedure: as §1

HDAC3 = HDAC3 (Homo sapiens, UniProt O15379); experiment: in vitro HDAC inhibition assay, HDAC3; type: biochemical
Chain of HDAC3 (O15379 whole entry): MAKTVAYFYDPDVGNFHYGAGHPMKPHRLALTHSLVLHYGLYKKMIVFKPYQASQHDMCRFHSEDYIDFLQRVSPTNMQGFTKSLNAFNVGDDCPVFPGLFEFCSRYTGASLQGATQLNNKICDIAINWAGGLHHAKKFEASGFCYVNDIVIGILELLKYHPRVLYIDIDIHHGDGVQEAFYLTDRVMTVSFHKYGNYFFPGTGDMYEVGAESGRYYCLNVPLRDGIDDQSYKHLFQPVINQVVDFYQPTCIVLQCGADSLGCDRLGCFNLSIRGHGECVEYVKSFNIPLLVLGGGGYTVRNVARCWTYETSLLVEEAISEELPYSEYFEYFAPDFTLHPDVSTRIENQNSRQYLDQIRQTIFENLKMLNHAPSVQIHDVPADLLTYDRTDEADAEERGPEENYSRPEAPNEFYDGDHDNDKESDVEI
Chain of HDAC3 (Q9Y618 395-489 partner limits assumed): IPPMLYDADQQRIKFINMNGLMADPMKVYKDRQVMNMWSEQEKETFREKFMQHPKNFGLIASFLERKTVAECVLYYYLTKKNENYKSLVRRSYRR

HDAC1-6 = experiment: cell-free HDAC activity assays, HDAC1-6 overall; type: biochemical; conditions: Fig2A and 2B
[7] = mice; ref according to the literature; cited from earlier work
human cancer cell lines = experiment: cancer cell killing / MTT viability (LD50); type: cell-based
γ-H2AX in H1650 cells = experiment: γ-H2AX Western blot (DNA damage) in H1650 cells; type: cell-based; conditions: 12 h
[8] = H1650 cells, 6 h, bendamustine 350 μM, CY 15 μM, SAHA 10 μM
[9] = median over NCI60 cell lines, read-out: median growth inhibitor concentration (GI50)

Cn1c(CCCCCCC(=O)NO)nc2cc(N(CCCl)CCCl)ccc21 [CY190602]
GI50 (MEFs): 57000 nM | viability at 72 h, 20 μM [1]: ~40% | expression of Tip60, CBP, MORF and MSL1 [2, 8]: greatly suppressed | inhibition of HDAC activities in cancer cells (histone acetylation markers) [3]: inhibited HDAC activities | MTD [4]: 60 mg/kg | CLL cells killed at 5 μM (human CLL cells; 5 μM, 72 h): nearly all | IC50 (HDAC1; HDAC1 Assay (plot legend value), Fig 2A upper panel): 9 nM | IC50 (HDAC1; IC50 of CY, HDAC1, Fig 2A lower panel): 17 nM | IC50 (HDAC2): 10 nM | IC50 (HDAC4): 6.4 nM | effect on AML cells (human AML cells): nearly eliminated AML cells | effect on mouse CD45+ (hematopoeitc lineage) cells (human AML cells): minimal effect | survival extension compared with cyclophosphamide, doxorubicin, cytarabine, and vincristine (BCR-ABL ALL cells; drugs at MTD): superior to these drugs | survival extension (BCR-ABL ALL cells): 14 days | anticancer activity in H460 xenograft compared with bendamustine [5]: superior to bendamustine | IC50 (HDAC6): 72 nM | activity in cultured BCR-ABL ALL cells compared with bendamustine [6]: more active than bendamustine | GI50 (NCI60 cell lines; average over NCI60 cell lines, read-out: average GI50): 3200 nM | GI50 (NCI60 cell lines; [9]): 2200 nM | IC50 (HDAC3): 25 nM

Nc1ccn([C@@H]2O[C@H](CO)[C@@H](O)[C@@H]2O)c(=O)n1 [Cytarabine, reference compound]
effect on AML cells (human AML cells): didn’t kill AML cells as quickly, or as thoroughly as did CY | effect on mouse CD45+ (hematopoeitc lineage) cells (human AML cells): nearly wiped out CD45+ cells

CC(C)n1nc(-c2cc3cc(O)ccc3[nH]2)c2c(N)ncnc21 [PP242]
survival extension, daily treatment (BCR-ABL ALL cells; daily dose): 8 days

O=C(CCCCCCC(=O)Nc1ccccc1)NO [SAHA]
expression of Tip60, CBP, MORF and MSL1 [2]: significant suppression | survival extension (BCR-ABL ALL cells): approximately 2 days

Cn1c(CCCC(=O)O)nc2cc(N(CCCl)CCCl)ccc21 [bendamustine]
HDAC inhibition (HDAC1-6): inability to inhibit HDAC | GI50 (MEFs; MEFs, authors' response in review file): ~390000 nM | expression of Tip60, CBP, MORF and MSL1 [2, 8]: not | inhibition of HDAC activities in cancer cells (histone acetylation markers) [3]: not | CLL cells killed at 100 μM (human CLL cells; 100 μM, 72 h): about 80% | survival extension (BCR-ABL ALL cells): ~5 days | MTD [7]: 40 mg/kg | GI50 (NCI60 cell lines; [9]): 77000 nM | GI50 (NCI60 cell lines; read-out: GI50 for most cancer cell lines of the NCI 60 test): > 100000 nM

Cn1c(CCCCCCC(=O)NO)nc2cc(N(CCO)CCO)ccc21 [compound A]
inhibition of HDAC activities in cancer cells (histone acetylation markers) [3]: inhibited HDAC activities | synergy with bendamustine in killing cancer cells (human cancer cell lines; nontoxic dose of Cpd A plus bendamustine): significantly synergized with bendamustine | killing of cancer cells (human cancer cell lines; up to 200 μM, 48 h): very ineffective in killing cancer cells | level of γ-H2AX in bendamustine-treated cells (γ-H2AX in H1650 cells; 100 μM Bend plus 50 μM Cpd A): significantly increased | DNA damage (γ-H2AX) by the compound alone (γ-H2AX in H1650 cells; H1650 cells): did not cause DNA damage

Cn1c(CCCCCCC(=O)O)nc2cc(N(CCCl)CCCl)ccc21 [compound B]
inhibition of HDAC activities in cancer cells (histone acetylation markers) [3]: little HDAC inhibitory activity | inhibition of HDAC activities in cancer cells (histone acetylation markers) ([3]; listed as CpdB): not

Nc1nc(F)nc2c1ncn2[C@@H]1O[C@H](CO)[C@@H](O)[C@@H]1O [fludarabine]
CLL cells killed at 100 μM (human CLL cells): about 80%
